Source: paper PMC6978363, “Chaperone mediated detection of small molecule target binding in cells” (Nature Communications, 2020)

Key:
Assay in all cases: biochemical
Conditions in all cases: read-out: % Inhibition (at 10mM)
CLK2 = CLK2 (Homo sapiens, UniProt P49760)
PAK1 = PAK1 (Homo sapiens, UniProt Q13153)
Yes = target: T1, Yes (Homo sapiens, UniProt P07947)
T1 construct: gene YES1

CK2_alpha1 = target: T2, CK2_alpha1 (Homo sapiens, UniProt P68400)
T2 construct: gene CSNK2A1

ROCK1 = ROCK1 (Homo sapiens, UniProt Q13464)
JAK3 = JAK3 (Homo sapiens, UniProt P52333)
PLK3 = PLK3 (Homo sapiens, UniProt Q9H4B4)
PKC_gamma = target: T3, PKC_gamma (Homo sapiens, UniProt P05129)
T3 construct: gene PRKCG

Flt3 = Flt3 (Homo sapiens, UniProt P36888)
HIPK2 = HIPK2 (Homo sapiens, UniProt Q9H2X6)
TrkC = target: T4, TrkC (Homo sapiens, UniProt Q16288)
T4 construct: gene NTRK3

MST4 = target: T5, MST4 (Homo sapiens, UniProt Q9P289)
T5 construct: gene STK26

SGK3 = SGK3 (Homo sapiens, UniProt Q96BR1)
CamKII_alpha = target: T6, CamKII_alpha (Homo sapiens, UniProt Q9UQM7)
T6 construct: gene CAMK2A

Src_N1 = target: T7, Src_N1 (Homo sapiens, UniProt P12931)
T7 construct: gene SRC; isoform N1

CamK1_gamma = target: T8, CamK1_gamma (Homo sapiens, UniProt Q96NX5)
T8 construct: gene CAMK1G

Lyn = Lyn (Homo sapiens, UniProt P07948)
PIM3 = PIM3 (Homo sapiens, UniProt Q86V86)
YSK4 = target: T9, YSK4 (Homo sapiens, UniProt Q56UN5)
T9 construct: gene MAP3K19

RSK4 = target: T10, RSK4 (Homo sapiens, UniProt Q9UK32)
T10 construct: gene RPS6KA6

PRK1 = target: T11, PRK1 (Homo sapiens, UniProt Q16512)
T11 construct: gene PKN1

CK1_alpha1L = target: T12, CK1_alpha1L (Homo sapiens, UniProt Q8N752)
T12 construct: gene CSNK1A1L

TrkB = target: T13, TrkB (Homo sapiens, UniProt Q16620)
T13 construct: gene NTRK2

HIPK3 = HIPK3 (Homo sapiens, UniProt Q9H422)
CK1_gamma3 = target: T14, CK1_gamma3 (Homo sapiens, UniProt Q9Y6M4)
T14 construct: gene CSNK1G3

CamKII_delta = target: T15, CamKII_delta (Homo sapiens, UniProt Q13557)
T15 construct: gene CAMK2D

SBK1 = SBK1 (Homo sapiens, UniProt Q52WX2)
p70S6Kb = target: T16, p70S6Kb (Homo sapiens, UniProt Q9UBS0)
T16 construct: gene RPS6KB2

CK1_gamma1 = target: T17, CK1_gamma1 (Homo sapiens, UniProt Q9HCP0)
T17 construct: gene CSNK1G1

Rse = target: T18, Rse (Homo sapiens, UniProt Q06418)
T18 construct: gene TYRO3

MuSK = MuSK (Homo sapiens, UniProt O15146)
PAK4 = PAK4 (Homo sapiens, UniProt O96013)
CDK5/p35 = target: T19, CDK5/p35 (Homo sapiens, UniProt Q00535)
T19 construct: p35

PLK2 = PLK2 (Homo sapiens, UniProt Q9NYY3)
HIPK4 = HIPK4 (Homo sapiens, UniProt Q8NE63)
p38_delta = target: T20, p38_delta (Homo sapiens, UniProt O15264)
T20 construct: gene MAPK13

T15 sequence (Q13557 whole entry): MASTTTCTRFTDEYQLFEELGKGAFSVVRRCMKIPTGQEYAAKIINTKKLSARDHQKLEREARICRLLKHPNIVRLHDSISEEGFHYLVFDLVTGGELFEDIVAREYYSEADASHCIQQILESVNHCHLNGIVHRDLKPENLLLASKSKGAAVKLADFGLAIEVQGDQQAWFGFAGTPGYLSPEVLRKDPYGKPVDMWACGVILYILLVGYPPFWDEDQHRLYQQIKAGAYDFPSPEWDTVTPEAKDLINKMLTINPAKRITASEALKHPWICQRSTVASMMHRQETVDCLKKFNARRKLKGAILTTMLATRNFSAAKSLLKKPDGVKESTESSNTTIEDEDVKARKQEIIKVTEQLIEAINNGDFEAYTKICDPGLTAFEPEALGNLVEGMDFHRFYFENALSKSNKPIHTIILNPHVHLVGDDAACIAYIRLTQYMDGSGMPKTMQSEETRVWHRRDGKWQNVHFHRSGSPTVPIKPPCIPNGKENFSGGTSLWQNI
T16 sequence (Q9UBS0 whole entry): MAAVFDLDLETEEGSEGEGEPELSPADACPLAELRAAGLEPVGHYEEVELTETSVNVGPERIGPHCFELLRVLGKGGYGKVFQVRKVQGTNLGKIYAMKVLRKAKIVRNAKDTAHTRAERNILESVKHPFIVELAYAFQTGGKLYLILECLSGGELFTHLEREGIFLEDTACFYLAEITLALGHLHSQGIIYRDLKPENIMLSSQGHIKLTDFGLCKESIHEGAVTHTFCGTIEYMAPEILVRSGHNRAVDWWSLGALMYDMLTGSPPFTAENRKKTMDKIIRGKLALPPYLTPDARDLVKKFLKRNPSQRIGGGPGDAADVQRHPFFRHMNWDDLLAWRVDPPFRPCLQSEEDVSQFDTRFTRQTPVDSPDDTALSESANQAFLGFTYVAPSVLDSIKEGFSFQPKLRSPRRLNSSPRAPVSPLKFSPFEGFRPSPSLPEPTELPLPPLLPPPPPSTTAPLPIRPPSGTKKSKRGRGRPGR
T19 sequence (Q00535 whole entry): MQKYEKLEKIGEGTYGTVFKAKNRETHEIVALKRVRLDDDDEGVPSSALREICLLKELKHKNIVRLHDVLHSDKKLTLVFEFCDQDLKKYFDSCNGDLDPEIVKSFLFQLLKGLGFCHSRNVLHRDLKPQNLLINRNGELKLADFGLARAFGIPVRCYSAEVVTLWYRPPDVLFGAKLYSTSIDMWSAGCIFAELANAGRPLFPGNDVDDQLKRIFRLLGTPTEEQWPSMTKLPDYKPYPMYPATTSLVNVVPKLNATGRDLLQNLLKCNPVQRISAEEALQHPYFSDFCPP
T19 sequence (Q15078 whole entry partner): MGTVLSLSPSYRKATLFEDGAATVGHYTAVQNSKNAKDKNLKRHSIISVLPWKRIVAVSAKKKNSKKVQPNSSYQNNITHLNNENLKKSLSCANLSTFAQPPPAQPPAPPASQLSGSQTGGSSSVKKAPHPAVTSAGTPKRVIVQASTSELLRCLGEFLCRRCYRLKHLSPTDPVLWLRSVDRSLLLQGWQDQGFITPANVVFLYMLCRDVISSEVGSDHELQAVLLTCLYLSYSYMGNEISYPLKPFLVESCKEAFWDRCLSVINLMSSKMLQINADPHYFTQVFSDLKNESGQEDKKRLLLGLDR
T5 sequence (Q9P289 whole entry): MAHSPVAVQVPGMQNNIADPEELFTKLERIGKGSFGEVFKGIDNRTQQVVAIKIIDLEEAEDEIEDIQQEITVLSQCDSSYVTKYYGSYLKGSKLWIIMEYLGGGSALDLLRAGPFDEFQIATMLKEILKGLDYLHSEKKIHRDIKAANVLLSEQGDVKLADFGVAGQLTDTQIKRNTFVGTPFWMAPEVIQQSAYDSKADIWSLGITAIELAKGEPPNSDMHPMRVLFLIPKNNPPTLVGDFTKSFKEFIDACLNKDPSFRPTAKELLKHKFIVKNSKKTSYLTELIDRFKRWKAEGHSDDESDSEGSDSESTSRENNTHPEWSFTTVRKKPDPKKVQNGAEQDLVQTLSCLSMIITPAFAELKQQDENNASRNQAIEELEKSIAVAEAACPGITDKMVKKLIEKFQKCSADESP
T18 sequence (Q06418 whole entry): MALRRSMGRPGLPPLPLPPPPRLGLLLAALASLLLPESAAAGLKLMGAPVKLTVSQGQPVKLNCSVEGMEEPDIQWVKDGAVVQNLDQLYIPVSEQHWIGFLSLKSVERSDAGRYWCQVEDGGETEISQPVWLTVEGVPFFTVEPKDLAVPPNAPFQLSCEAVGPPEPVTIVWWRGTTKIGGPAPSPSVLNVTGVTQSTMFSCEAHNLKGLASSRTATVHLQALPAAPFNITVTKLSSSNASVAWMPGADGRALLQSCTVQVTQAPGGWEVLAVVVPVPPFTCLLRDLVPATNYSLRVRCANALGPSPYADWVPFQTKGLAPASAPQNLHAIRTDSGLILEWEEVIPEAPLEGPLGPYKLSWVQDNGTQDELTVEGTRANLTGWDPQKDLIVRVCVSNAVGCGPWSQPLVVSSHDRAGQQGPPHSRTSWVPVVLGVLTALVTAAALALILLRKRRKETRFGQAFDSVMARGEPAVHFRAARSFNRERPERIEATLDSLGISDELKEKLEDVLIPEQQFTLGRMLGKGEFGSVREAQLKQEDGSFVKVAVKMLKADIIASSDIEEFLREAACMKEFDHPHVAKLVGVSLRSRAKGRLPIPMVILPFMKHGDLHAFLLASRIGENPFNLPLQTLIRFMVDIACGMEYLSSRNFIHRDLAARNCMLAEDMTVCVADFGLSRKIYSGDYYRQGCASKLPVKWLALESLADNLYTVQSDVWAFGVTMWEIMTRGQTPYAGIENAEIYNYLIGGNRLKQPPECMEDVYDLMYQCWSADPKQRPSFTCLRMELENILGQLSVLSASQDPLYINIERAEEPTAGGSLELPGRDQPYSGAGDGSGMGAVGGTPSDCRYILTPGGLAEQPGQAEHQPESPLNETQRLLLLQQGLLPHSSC
PLK3, sequence (Q9H4B4 whole entry): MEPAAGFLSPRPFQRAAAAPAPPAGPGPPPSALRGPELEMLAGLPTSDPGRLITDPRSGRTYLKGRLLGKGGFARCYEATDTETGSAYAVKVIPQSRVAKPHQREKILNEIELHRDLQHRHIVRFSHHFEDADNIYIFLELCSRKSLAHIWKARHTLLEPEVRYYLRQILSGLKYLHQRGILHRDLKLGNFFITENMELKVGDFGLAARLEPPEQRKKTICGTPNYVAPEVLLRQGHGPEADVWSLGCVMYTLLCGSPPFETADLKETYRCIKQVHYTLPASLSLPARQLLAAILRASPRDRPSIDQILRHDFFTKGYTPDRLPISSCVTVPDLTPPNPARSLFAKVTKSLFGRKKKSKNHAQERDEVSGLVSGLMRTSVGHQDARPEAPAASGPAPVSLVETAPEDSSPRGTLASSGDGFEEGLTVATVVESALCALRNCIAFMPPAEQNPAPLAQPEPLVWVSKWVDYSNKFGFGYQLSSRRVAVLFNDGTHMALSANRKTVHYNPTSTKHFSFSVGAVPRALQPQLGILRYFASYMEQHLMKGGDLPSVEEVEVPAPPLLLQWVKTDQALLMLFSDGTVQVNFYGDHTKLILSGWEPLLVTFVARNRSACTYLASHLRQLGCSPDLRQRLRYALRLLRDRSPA
T17 sequence (Q9HCP0 whole entry): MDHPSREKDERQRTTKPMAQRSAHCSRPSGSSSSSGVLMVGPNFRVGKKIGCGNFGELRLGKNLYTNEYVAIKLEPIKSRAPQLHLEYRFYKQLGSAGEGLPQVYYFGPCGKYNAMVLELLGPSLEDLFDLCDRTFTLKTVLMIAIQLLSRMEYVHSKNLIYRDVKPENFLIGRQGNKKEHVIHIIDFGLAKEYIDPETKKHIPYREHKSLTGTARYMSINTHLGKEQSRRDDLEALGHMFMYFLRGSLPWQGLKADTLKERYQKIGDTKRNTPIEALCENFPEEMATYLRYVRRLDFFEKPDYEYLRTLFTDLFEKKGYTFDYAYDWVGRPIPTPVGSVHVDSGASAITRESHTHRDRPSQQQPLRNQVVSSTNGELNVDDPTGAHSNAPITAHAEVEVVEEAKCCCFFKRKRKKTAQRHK
Flt3, sequence (P36888 whole entry): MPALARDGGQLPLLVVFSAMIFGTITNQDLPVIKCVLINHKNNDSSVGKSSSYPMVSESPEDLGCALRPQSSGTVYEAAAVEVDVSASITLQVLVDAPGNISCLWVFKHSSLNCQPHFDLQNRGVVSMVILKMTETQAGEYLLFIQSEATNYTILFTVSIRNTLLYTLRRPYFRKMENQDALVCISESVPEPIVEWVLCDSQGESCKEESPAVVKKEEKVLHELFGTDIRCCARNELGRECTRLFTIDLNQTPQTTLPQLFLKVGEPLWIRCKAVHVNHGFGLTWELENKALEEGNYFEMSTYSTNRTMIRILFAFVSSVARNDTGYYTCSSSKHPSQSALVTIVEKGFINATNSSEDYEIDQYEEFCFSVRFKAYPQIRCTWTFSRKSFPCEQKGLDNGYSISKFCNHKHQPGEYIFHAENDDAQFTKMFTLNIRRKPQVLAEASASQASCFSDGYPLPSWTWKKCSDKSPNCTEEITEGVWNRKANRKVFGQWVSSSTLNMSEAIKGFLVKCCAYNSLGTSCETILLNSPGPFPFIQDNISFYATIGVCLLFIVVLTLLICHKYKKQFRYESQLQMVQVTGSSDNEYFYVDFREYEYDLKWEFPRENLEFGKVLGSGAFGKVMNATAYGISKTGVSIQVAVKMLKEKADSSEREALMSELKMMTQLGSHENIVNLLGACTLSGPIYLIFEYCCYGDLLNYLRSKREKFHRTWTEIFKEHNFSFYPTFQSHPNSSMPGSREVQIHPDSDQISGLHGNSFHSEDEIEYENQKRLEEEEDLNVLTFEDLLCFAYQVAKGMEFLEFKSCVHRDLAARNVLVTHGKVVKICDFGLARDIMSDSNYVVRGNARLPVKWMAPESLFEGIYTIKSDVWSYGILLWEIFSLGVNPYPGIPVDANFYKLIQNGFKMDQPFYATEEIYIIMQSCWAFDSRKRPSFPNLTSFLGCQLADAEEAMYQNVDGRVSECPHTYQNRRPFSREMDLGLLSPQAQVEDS

CC(C)(O)CC(=O)NCCn1ccc2ncnc(Nc3ccc(Oc4cccc(C(F)(F)F)c4)c(Cl)c3)c21 [TAK-285] was tested, and the inhibition (CLK2) was 18.5%, the inhibition (PAK1) was 16% and the inhibition (Yes) was 83%. It also gave an inhibition (CK2_alpha1) of -2.5%, an inhibition (ROCK1) of -1.5% and an inhibition (JAK3) of 2%. It also gave an inhibition (PLK3) of -8.5%, an inhibition (PKC_gamma) of 8% and an inhibition (Flt3) of 27%. It also gave an inhibition (HIPK2) of 6%, an inhibition (TrkC) of 6% and an inhibition (MST4) of -2.5%. It also gave an inhibition (SGK3) of 2%, an inhibition (CamKII_alpha) of 2.5% and an inhibition (Src_N1) of 23%. The inhibition (CamK1_gamma) was 10%, the inhibition (Lyn) was 39.5% and the inhibition (PIM3) was 1%. It also gave an inhibition (YSK4) of 1%, an inhibition (RSK4) of 2.5% and an inhibition (PRK1) of -7%. For the same compound, the inhibition (CK1_alpha1L) was 3%, the inhibition (TrkB) was 4.5% and the inhibition (HIPK3) was 0%. It also gave an inhibition (CK1_gamma3) of 2.5%, an inhibition (CamKII_delta) of 6% and an inhibition (SBK1) of 8.5%. The inhibition (p70S6Kb) was 2.5%, the inhibition (CK1_gamma1) was 2.5% and the inhibition (Rse) was 10.5%. For the same compound, the inhibition (MuSK) was 17.5%, the inhibition (PAK4) was 5.5% and the inhibition (CDK5/p35) was 3.5%. It also gave an inhibition (PLK2) of 2.5%, an inhibition (HIPK4) of 5.5% and an inhibition (p38_delta) of 5.5%.
